Data published in ChEMBL document CHEMBL1145498, “A systematic interaction map of validated kinase inhibitors with Ser/Thr kinases” (Proc Natl Acad Sci U S A, 2007).

Columns and labels:
[1] = molecular target: Calcium/calmodulin-dependent protein kinase kinase 2 (Homo sapiens, UniProt Q96RR4); test: Inhibition of CaM-KKbeta
[2] = Binding affinity at PKA
[3] = molecular target: Epidermal growth factor receptor (Homo sapiens, UniProt P00533)
[4] = molecular target: Vascular endothelial growth factor receptor 2 (Homo sapiens, UniProt P35968)
Chain of Vascular endothelial growth factor receptor 2 (P35968 whole entry): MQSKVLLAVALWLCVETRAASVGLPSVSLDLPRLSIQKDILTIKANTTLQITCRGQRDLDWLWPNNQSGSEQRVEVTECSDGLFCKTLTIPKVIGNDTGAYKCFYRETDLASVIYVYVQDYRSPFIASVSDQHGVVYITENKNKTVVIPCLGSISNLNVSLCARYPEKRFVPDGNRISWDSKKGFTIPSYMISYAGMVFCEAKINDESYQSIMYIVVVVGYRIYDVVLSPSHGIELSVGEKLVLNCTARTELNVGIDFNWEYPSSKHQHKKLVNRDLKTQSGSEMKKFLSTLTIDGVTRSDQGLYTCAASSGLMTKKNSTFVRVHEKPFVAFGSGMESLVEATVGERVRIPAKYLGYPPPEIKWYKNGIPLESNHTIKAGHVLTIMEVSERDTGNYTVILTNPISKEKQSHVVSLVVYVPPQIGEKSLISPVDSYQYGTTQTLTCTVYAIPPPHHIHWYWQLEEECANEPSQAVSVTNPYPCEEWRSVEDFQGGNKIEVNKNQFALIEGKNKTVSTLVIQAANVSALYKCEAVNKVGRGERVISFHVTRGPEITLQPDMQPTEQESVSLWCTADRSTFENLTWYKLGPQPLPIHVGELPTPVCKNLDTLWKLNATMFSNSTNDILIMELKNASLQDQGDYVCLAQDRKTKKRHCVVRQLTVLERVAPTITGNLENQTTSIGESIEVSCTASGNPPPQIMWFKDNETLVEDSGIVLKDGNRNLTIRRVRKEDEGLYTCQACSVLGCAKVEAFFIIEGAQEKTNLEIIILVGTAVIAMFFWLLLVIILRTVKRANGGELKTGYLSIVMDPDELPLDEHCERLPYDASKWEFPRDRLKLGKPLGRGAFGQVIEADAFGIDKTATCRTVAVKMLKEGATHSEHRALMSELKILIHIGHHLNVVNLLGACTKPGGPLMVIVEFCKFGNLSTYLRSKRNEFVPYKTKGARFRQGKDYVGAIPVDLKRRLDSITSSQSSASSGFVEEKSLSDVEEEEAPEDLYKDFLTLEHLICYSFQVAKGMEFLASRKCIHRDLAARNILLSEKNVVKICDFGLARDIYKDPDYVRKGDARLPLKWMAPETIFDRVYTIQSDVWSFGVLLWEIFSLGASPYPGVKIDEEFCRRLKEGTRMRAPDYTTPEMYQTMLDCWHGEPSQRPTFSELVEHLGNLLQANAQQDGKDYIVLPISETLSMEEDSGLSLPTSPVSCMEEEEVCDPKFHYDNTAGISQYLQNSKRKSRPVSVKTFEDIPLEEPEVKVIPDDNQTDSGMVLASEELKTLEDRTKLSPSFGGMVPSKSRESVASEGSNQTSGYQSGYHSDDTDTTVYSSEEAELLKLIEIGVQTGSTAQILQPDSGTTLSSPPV

Chain of Calcium/calmodulin-dependent protein kinase kinase 2 (Q96RR4 whole entry): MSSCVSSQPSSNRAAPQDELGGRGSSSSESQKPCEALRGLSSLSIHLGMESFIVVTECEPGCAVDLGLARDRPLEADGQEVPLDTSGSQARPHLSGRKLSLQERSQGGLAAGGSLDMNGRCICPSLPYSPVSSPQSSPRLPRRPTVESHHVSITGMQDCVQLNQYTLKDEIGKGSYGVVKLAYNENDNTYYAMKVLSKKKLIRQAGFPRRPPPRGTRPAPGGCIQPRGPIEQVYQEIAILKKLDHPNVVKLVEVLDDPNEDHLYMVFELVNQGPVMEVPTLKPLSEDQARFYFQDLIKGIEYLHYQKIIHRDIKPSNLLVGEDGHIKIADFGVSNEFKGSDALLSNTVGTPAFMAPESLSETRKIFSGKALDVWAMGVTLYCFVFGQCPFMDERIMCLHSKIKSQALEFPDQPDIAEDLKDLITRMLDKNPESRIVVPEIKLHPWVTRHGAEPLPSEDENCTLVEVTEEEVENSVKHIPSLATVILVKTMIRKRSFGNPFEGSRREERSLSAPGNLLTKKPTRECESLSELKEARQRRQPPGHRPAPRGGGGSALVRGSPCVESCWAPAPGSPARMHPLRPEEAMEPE
Chain of Epidermal growth factor receptor (P00533 whole entry): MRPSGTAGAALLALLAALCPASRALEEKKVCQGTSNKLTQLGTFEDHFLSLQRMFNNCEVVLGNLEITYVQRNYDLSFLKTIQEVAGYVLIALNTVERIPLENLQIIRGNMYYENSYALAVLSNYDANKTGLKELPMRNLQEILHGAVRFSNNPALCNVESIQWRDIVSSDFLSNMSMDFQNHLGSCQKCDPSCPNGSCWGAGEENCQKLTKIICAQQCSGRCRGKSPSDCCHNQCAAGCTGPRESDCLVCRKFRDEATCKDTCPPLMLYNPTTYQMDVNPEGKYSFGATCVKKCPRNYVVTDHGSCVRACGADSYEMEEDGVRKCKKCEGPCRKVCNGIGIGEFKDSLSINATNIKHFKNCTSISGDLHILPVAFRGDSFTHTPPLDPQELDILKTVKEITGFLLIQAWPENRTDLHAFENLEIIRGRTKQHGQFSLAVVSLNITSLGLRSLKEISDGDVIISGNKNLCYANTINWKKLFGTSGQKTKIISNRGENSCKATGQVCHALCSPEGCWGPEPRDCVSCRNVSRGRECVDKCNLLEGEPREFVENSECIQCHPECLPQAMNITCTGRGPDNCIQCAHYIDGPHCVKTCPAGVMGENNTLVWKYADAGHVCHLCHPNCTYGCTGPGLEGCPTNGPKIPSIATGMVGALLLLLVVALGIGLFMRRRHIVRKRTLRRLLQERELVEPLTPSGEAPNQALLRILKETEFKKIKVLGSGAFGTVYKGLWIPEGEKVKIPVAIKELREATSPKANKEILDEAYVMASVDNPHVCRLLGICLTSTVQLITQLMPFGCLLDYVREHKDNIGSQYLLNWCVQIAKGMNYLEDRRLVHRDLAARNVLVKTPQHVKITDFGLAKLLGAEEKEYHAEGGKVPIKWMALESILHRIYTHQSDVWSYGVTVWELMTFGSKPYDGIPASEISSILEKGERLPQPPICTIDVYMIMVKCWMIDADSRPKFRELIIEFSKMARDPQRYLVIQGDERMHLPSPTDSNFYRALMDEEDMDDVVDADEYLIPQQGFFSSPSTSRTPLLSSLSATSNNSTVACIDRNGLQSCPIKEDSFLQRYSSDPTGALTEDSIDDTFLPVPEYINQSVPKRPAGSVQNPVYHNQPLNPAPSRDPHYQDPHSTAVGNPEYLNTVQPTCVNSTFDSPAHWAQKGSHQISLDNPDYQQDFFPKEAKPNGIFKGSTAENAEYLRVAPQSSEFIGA

Question: Which Ki [1] does the source give for `O=S(=O)(NCCNC/C=C/c1ccc(Br)cc1)c1cccc2cnccc12` here?
Answer: 29700 nM

Question: With `Cc1cncc2cccc(S(=O)(=O)N3CCCNC[C@@H]3C)c12` as the molecule, how does the Ki [2] read?
Answer: 630 nM

Question: For `O=C(O)/C=C/c1cc(CO)ccc1CO`, which IC50 [3] is on record?
Answer: 780 nM

Question: Which IC50 [4] does the source give for `CC(C)c1cc(/C=C(\C#N)C(=O)NCCCc2ccccc2)cc(C(C)C)c1O` here?
Answer: 700 nM
